In patent US10780101B2, “Amide derivatives of squalamine for the treatment of infections” (VIRBAC, priority 2016, dated 2020):
Converted amounts (≈) assume the structure as drawn.

What was measured:
[1] = system: S. aureus Human ATCC 25923; assay: MIC determination, S. aureus human ATCC 25923; type: cell-based; details: Staphylococcus aureus, ATCC25923; Gram-positive; Mueller-Hinton medium, 24 h at 37° C.
Description: (§1) A negative control (2 mL of sterile culture medium)
(§2) A positive control (1940 μL of culture medium+40 μL of DMSO+20 μL of the bacterial suspension) from a thawed biological strain (the biological strains are stored at −80° C. in glycerol).
(§3) The tubes were incubated at 37° C. for 24 hours at 100 rpm.
(§4) The microorganisms were handled under a type L2 laboratory fume cupboard and, before any handling, a UV cycle was programmed and only sterile material was used. […] The chemical compounds to be tested were prepared in a DMSO/methanol mixture (50/50) at a concentration of 5 mg/mL.
(§5) After 24 hours of incubation, a measurement of the optical density was taken using a spectrophotometer at 600 nm, collecting 100 μL of the bacterial suspension diluted in 900 μL of the sterile culture medium. This test required the use of a 96-well plate and the required volume of the microbial suspension to be seeded was calculated for an OD corresponding to a value equal to 0.01 in each well. In this plate, the first line corresponded to the negative control (195 μL of sterile culture medium in each well), the second line corresponded to the positive control (seeded culture medium supplemented with 2% of DMSO), and the third line was loaded twice with bacterial suspension; 8 μL of test product were placed in each well. Thereafter, a 0.5 cascade dilution was performed from this line.
(§6) The first column served as inhibition control. A sterile filter was then placed on the microplate, allowing the passage of gases but not of contaminants. The microplate was incubated at 37° C. under a humid atmosphere for 24 hours.
(§7) NB: The medium used is Mueller-Hinton (MH) medium for bacteria. All the tests were performed in duplicate.
(§8) After incubation, the filter was replaced with a transparent film, and an OD reading was then taken in an iEMS plate spectrophotometer at 620 nm. Calculation of the minimum inhibitory concentration (MIC) was performed.

S. aureus Animal (340) = assay: MIC determination, S. aureus animal (340); type: cell-based; details: Staphylococcus aureus; Gram-positive; Mueller-Hinton medium, 24 h at 37° C.
Description: as §1, §2, §3, §4, §5, §6, §7, §8

[2] = system: S. intermedius Animal (1051997); assay: MIC determination, S. intermedius animal (1051997); type: cell-based; details: Staphylococcus intermedius; Gram-positive; Mueller-Hinton medium, 24 h at 37° C.
Description: as §1, §2, §3, §4, §5, §6, §7, §8

[3] = system: E. faecalis Human ATCC 29212; assay: MIC determination, E. faecalis human ATCC 29212; type: cell-based; details: Enterococcus faecalis, ATCC29212; Gram-positive; Mueller-Hinton medium, 24 h at 37° C.
Description: as §1, §2, §3, §4, §5, §6, §7, §8

E. coli Human ATCC 28922 = assay: MIC determination, E. coli human ATCC 28922; type: cell-based; details: Escherichia coli, ATCC28922; Gram-negative; Mueller-Hinton medium, 24 h at 37° C.
Description: as §1, §2, §3, §4, §5, §6, §7, §8

E. coli Animal (1956) = assay: MIC determination, E. coli animal (1956); type: cell-based; details: Escherichia coli; Gram-negative; Mueller-Hinton medium, 24 h at 37° C.
Description: as §1, §2, §3, §4, §5, §6, §7, §8

[4] = system: P. aeruginosa Human ATCC 27853; assay: MIC determination, P. aeruginosa human ATCC 27853; type: cell-based; details: Pseudomonas aeruginosa, ATCC27853; Gram-negative; Mueller-Hinton medium, 24 h at 37° C.
Description: as §1, §2, §3, §4, §5, §6, §7, §8

[5] = system: P. aeruginosa Animal (1051575); assay: MIC determination, P. aeruginosa animal (1051575); type: cell-based; details: Pseudomonas aeruginosa; Gram-negative; Mueller-Hinton medium, 24 h at 37° C.
Description: as §1, §2, §3, §4, §5, §6, §7, §8

CHO-K1 cells = assay: WST1 cytotoxicity test on CHO-K1 cells; type: cell-based, Chinese hamster; details: Cricetulus griseus, CHO-K1, 24 h, read-out: IC50 (μg/mL) CHO
Description: Test WST1 was used to measure the cytotoxic activity of the products. This is a colorimetric test which makes it possible to measure the viability and the degree of cell proliferation. It is based on cleavage of the colorless tetrazolium salts WST-1 (4-[3-(4-iodophenyl)-2-(4-nitrophenyl)-2H-5-tetrazolio]-1,3-benzene disulfonate) with mitochondrial dehydrogenases to the yellow-colored formazan derivative, which may be quantified by spectrophotometry at 420-480 nm.
The WST1 test was performed on Chinese hamster ovary cells. The CHO-K1 cells (ATCC, USA) are kept in culture in McCoy's 5A medium supplemented with 10% fetal calf serum, 2 mM of L-glutamine and a mixture of penicillin-streptomycin (100 U/ml: 10 μg/ml). The culture is incubated at 37° C. under an atmosphere enriched in CO2 (5%), and subcultured every two days.
The cells are transferred into 96-well plates (25000 cells/mL) in whole McCoy's 5A medium, and maintained for 24 hours at 37° C. under a humid atmosphere enriched in CO2 (5%). Increasing concentrations of test products are added to the wells in double tests and 8 growth controls containing the cells in the medium alone are included in each series of tests. After 24 hours at 37° C. (5% CO2), the culture medium is removed, the cells are rinsed in phosphate buffer (PBS) and 50 μL of PBS containing 10% of reagent WST1 are added to each well. After 20 minutes of incubation at 37° C., the results are read by spectrophotometry at 450 nm.
The results are expressed in dose-response relationships, modeled by nonlinear regression analysis using the TableCurve software. The 50% inhibitory concentration (IC50) represents the concentration of product that is capable of reducing the cell viability by 50%.

P. aeruginosa (1051575) = assay: Potentiation of doxycycline activity (combination MIC); type: cell-based, Pseudomonas aeruginosa; details: for MIC - P. aeruginosa (1051575): content of compound of formula (I) to restore the doxycycline activity (at 2 μg/mL): in presence of doxycycline 2 μg/mL, 24 hours at 37° C.

SMILES | MIC [1] [µg/mL] | MIC (S. aureus Animal (340)) [µg/mL] | MIC [2] [µg/mL] | MIC [3] [µg/mL] | MIC (E. coli Human ATCC 28922) [µg/mL] | MIC (E. coli Animal (1956)) [µg/mL] | MIC [4] [µg/mL] | MIC [5] [µg/mL] | IC50 (CHO-K1 cells) [µg/mL] | MIC - P. aeruginosa (1051575): content of compound of formula (I) to restore the doxycycline activity (at 2 μg/mL) (P. aeruginosa (1051575)) [µg/mL] | synergism when administered with doxycycline (P. aeruginosa (1051575); doxycycline at 2 μg/mL)
CC(C)NC(=O)CC[C@@H](C)[C@H]1CCC2C3C(CC[C@@]21C)[C@@]1(C)CC[C@H](NCCCN(C)CCCN)CC1C[C@@H]3O (stereo partly drawn) [(28), 3β-(bis(3-aminopropyl)methylamine)-N-isopropylursodeoxycholamide] | 28 (≈ 49.9 µM) | 28 (≈ 49.9 µM) | 14 (≈ 25 µM) | 56 (≈ 99.8 µM) | 56 (≈ 99.8 µM) | 112 (≈ 200 µM) | 112 (≈ 200 µM) | 112 (≈ 200 µM) | 28 (≈ 49.9 µM) | 7 | –
CC(C)NC(=O)CC[C@@H](C)[C@H]1CCC2C3CCC4C[C@@H](NCCCN(C)CCCN)CC[C@]4(C)C3CC[C@@]21C (stereo partly drawn) [(29), 3β-(bis(3-aminopropyl)methylamine)-N-isopropyllithocholamide] | 14 (≈ 25.7 µM) | 14 (≈ 25.7 µM) | 7 (≈ 12.8 µM) | 28 (≈ 51.4 µM) | 28 (≈ 51.4 µM) | 28 (≈ 51.4 µM) | 112 (≈ 206 µM) | 112 (≈ 206 µM) | 6 (≈ 11 µM) | 7 | –
CC(C)NC(=O)CC[C@@H](C)[C@H]1CCC2C3CCC4C[C@@H](NCCCNCCCCNCCCN)CC[C@]4(C)C3C[C@H](O)[C@@]21C (stereo partly drawn) [(30), 3β-spermino-N-isopropyldeoxycholamide] | 8 (≈ 12.9 µM) | 8 (≈ 12.9 µM) | 1 (≈ 1.62 µM) | 15 (≈ 24.3 µM) | 15 (≈ 24.3 µM) | 30 (≈ 48.5 µM) | 4 (≈ 6.47 µM) | 4 (≈ 6.47 µM) | 30 (≈ 48.5 µM) | 1 | –
C[C@H](CCC(=O)NC1CCCCC1)[C@H]1CCC2C3C(CC[C@@]21C)[C@@]1(C)CC[C@H](NCCCNCCCN)CC1C[C@H]3O (stereo partly drawn) [(38), 3β-norspermidino-N-cyclohexylchenodeoxycholamide] | 4 (≈ 6.81 µM) | 4 (≈ 6.81 µM) | 2 (≈ 3.41 µM) | 4 (≈ 6.81 µM) | 30 (≈ 51.1 µM) | 15 (≈ 25.6 µM) | 30 (≈ 51.1 µM) | 30 (≈ 51.1 µM) | 12 (≈ 20.4 µM) | 2 | –
CC(C)NC(=O)CC[C@@H](C)[C@H]1CCC2C3C(CC[C@@]21C)[C@@]1(C)CC[C@H](NCCCN(CCCN)CCCN)CC1C[C@@H]3O (stereo partly drawn) [(48), 3β-(tris(3-aminopropyl)amine)-N-isopropylursodeoxycholamide] | 30 (≈ 49.7 µM) | 15 (≈ 24.8 µM) | 8 (≈ 13.2 µM) | 60 (≈ 99.3 µM) | > 120 | 120 (≈ 199 µM) | 120 (≈ 199 µM) | 120 (≈ 199 µM) | 42 (≈ 69.5 µM) | 4 | –
CCN(CC)C(=O)CC[C@@H](C)[C@H]1CCC2C3C(CC[C@@]21C)[C@@]1(C)CC[C@H](NCCCNCCNCCCN)CC1C[C@H]3O (stereo partly drawn) [(53), 3β-(bis(3-aminopropyl)ethylenediamine)-N,N-diethylchenodeoxycholamide] | 4 (≈ 6.62 µM) | 4 (≈ 6.62 µM) | 2 (≈ 3.31 µM) | 2 (≈ 3.31 µM) | 60 (≈ 99.3 µM) | 15 (≈ 24.8 µM) | 30 (≈ 49.7 µM) | 15 (≈ 24.8 µM) | 30 (≈ 49.7 µM) | 2 | –
CC(C)N(C(=O)CC[C@@H](C)[C@H]1CCC2C3C(CC[C@@]21C)[C@@]1(C)CC[C@H](NCCCNCCNCCCN)CC1C[C@H]3O)C(C)C (stereo partly drawn) [(54), 3β-(bis(3-aminopropyl)ethylenediamine)-N,N-diisopropylchenodeoxycholamide] | 4 (≈ 6.33 µM) | 4 (≈ 6.33 µM) | 2 (≈ 3.16 µM) | 2 (≈ 3.16 µM) | 125 (≈ 198 µM) | 8 (≈ 12.7 µM) | 32 (≈ 50.6 µM) | 16 (≈ 25.3 µM) | 22 (≈ 34.8 µM) | 2 | –
CC(C)NC(=O)CC[C@@H](C)[C@H]1CCC2C3C(C[C@H](O)[C@@]21C)[C@@]1(C)CC[C@H](NCCCNCCCCNCCCN)CC1C[C@H]3O (stereo partly drawn) [Compound (31), 3β-spermino-N-isopropylcholamide] | 4 (≈ 6.31 µM) | 8 (≈ 12.6 µM) | 4 (≈ 6.31 µM) | 8 (≈ 12.6 µM) | 16 (≈ 25.2 µM) | 32 (≈ 50.5 µM) | 64 (≈ 101 µM) | 32 (≈ 50.5 µM) | 40 (≈ 63.1 µM) | 1 | –
CNC(=O)CC[C@@H](C)[C@H]1CCC2C3C(CC[C@@]21C)[C@@]1(C)CC[C@H](NCCCNCCCCNCCCN)CC1C[C@H]3O (some centres unmarked) [Compound (33)] | 3.5 (≈ 5.93 µM) | 1 (≈ 1.7 µM) | 0.8 (≈ 1.36 µM) | 14 (≈ 23.7 µM) | 14 (≈ 23.7 µM) | 7 (≈ 11.9 µM) | 7 (≈ 11.9 µM) | 2 (≈ 3.39 µM) | 35 (≈ 59.3 µM) | 1 | –
CC(C)NC(=O)CC[C@@H](C)[C@H]1CCC2C3CCC4C[C@@H](NCCCNCCCCNCCCN)CC[C@]4(C)C3CC[C@@]21C (stereo partly drawn) [Compound (36), 3β-spermino-N-isopropyllithocholamide] | 3.75 (≈ 6.23 µM) | 3.75 (≈ 6.23 µM) | 1.87 (≈ 3.11 µM) | 7.5 (≈ 12.5 µM) | 7.5 (≈ 12.5 µM) | 15 (≈ 24.9 µM) | 15 (≈ 24.9 µM) | 30 (≈ 49.8 µM) | 36 (≈ 59.8 µM) | 0.5 | noteworthy synergism
